ChEMBL document CHEMBL3745711, “Discovery of potent and orally bioavailable inhibitors of Human Uric Acid Transporter 1 (hURAT1) and binding mode prediction using homology model” (Bioorg Med Chem Lett, 2016)

Target: T1, Solute carrier family 22 member 12 (Homo sapiens, UniProt Q96S37)
T1 sequence (Q96S37 whole entry): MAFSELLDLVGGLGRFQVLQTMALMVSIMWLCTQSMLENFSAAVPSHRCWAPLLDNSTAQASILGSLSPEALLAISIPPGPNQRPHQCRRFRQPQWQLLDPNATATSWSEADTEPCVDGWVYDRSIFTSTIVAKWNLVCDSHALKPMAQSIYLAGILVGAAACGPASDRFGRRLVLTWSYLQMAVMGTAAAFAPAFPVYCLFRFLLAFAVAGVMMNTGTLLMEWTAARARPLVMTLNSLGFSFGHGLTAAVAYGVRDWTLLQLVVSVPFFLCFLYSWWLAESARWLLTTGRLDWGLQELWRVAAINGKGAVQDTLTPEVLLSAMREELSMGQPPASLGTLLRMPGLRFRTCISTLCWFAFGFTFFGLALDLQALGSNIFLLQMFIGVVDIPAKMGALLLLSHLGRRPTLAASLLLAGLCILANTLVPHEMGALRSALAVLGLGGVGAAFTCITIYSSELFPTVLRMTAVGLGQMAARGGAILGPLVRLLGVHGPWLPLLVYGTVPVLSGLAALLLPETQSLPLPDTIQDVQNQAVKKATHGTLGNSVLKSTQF
Assay: Inhibition of human URAT1 expressed in HEK293 cells assessed as [14C]uric acid uptake after 12 mins by scintillation counter
Assay type: cell-based

Structure (SMILES)	IC50
O=C(O)C1(Sc2ccnc3ccc(O)cc23)CCC1	> 10 µM
O=C(O)C1(Sc2ccnc3cccnc23)CCC1	> 10 µM
O=C(O)C1(Sc2nccc3ncccc23)CCC1	> 10 µM
O=C(O)C1(Sc2ccnc3ccc(Br)cc23)CC1	0.352 µM
CNC(=O)COc1ccc2nccc(SC3(C(=O)O)CCC3)c2c1	> 10 µM
N#CCCc1ccc2nccc(SC3(C(=O)O)CCC3)c2c1	2.76 µM
O=C(O)C1(Sc2ccnc3ccc(-c4ccccc4F)cc23)CCC1	0.333 µM
CC(=O)Nc1ccc2nccc(SC3(C(=O)O)CCC3)c2c1	> 10 µM
O=C(O)C1(Oc2ncnc3ccccc23)CCC1	> 10 µM
O=C(O)C1(Sc2ncnc3ccccc23)CCC1	> 10 µM
O=C1COc2cccc(SC3(C(=O)O)CCC3)c2N1	> 10 µM
